This is an account of results in patent US20230322715A1, “BROAD SPECTRUM ANTI-CANCER COMPOUNDS” (The Regents of the University of California, priority 2019, published 2023).

Chain of YTHDF1 (Q9BYJ9 whole entry): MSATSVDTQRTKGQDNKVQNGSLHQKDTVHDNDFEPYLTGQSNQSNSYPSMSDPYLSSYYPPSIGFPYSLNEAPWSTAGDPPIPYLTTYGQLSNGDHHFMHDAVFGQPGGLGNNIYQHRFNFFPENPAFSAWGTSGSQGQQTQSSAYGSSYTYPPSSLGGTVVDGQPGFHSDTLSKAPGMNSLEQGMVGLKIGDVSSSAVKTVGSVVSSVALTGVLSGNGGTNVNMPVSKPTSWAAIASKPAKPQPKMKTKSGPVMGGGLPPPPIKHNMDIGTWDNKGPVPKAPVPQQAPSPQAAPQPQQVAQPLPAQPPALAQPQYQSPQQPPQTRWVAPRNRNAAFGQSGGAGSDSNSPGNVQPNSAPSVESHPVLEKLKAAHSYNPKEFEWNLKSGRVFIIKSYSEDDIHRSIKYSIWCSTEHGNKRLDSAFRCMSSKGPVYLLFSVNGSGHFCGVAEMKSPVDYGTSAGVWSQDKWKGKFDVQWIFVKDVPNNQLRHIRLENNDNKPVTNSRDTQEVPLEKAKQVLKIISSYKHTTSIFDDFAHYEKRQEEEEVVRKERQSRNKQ
Chain of YTHDF2 (Q9Y5A9 whole entry): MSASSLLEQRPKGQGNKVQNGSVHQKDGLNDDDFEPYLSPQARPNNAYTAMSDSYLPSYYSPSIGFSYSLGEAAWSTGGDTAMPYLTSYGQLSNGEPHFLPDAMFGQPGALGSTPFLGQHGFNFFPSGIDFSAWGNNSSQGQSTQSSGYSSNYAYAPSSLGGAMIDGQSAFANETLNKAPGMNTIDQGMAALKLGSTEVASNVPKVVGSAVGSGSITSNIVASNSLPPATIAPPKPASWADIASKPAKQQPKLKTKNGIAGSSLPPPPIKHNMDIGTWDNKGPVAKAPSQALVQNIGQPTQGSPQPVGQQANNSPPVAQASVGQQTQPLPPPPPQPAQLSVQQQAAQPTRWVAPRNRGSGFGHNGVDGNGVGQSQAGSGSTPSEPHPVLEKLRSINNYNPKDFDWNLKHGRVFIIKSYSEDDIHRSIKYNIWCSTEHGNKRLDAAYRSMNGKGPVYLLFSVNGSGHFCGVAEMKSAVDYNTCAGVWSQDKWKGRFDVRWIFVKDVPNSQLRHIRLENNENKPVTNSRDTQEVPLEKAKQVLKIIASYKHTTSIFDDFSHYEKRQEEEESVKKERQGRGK

The first series concerns the target YTHDF2 (Homo sapiens (Human), UniProt Q9Y5A9). Description: In vitro FRET assay for binding affinities of YTH inhibitors, YTHDF2. The following applies: Ki values for YTH library against YTHDF2; read-out: Ki. The text has this: (§1) FIG. 8-2 depicts possible design and synthesis of compound libraries. In Vitro FRET assay development could yield a high throughput FRET assay to determine binding affinities for potential YHT inhibitors against YTHDF1, YTHDF2, YTHDF3, or other similar proteins.
For orientation: Ki means a measure of affinity in units of concentration, obtained from inhibition or displacement. With `COc1ccc(CNc2ccc(CNC3CC3)cn2)cc1` [TR-YTH-01], the Ki stood at 102 ± 15 pM.
Still for that read-out and setting: the value for `COc1ccc(CNc2ccc(CNC3CC3)cn2)c(OC)c1` [TR-YTH-02] was 182 ± 69 pM; that for `COc1ccc(CNc2ccc(CNC3CC3)cn2)cc1OC` [TR-YTH-03] was 85 ± 26 pM.
On to `CC(Nc1ccc(CNC2CC2)cn1)c1ccccc1` (stereo not shown) [TR-YTH-04], for which the inhibitory constant (Ki) turned out to be 100 ± 34 pM.
Same read-out and setting: the value for `c1cncc(CNc2ccc(CNC3CC3)cn2)c1` [TR-YTH-05] was 70 ± 12 pM.
As for `Fc1ccc(CNc2ccc(CNC3CC3)cn2)cc1F` [TR-YTH-06], the Ki turned out to be 395 ± 51 pM.
`FC(F)(F)c1ccc(CNc2ccc(CNC3CC3)cn2)cc1` [TR-YTH-07]: the Ki was determined as 77 ± 18 pM.
On to `Fc1cccc(F)c1CNc1ccc(CNC2CC2)cn1` [TR-YTH-09], for which the inhibitory constant (Ki) turned out to be 172 ± 49 pM.
Turning to `CN(Cc1ccc(C(F)(F)F)cc1)c1ccc(CNC2CC2)cn1` [TR-YTH-10], the inhibitory constant (Ki) was 106 ± 26 pM.
On the same count and under the same terms, the value for `Cc1ccc(Nc2ccc(CNC3CC3)cn2)cc1C` [TR-YTH-12] was 850 ± 115 pM; that for `Fc1ccnc(Nc2ccc(CNC3CC3)cn2)c1` [TR-YTH-15] was 145 ± 33 pM.
With `COc1ccc(CNc2ccc(CN(C)C)cn2)cc1` [TR-YTH-16], the Ki was found to be 179 ± 36 pM.
`CC(Nc1ccc(CN(C)C)cn1)c1ccccc1` (stereo not shown) [TR-YTH-18]: the inhibitory constant (Ki) amounted to 95 ± 13 pM.
On the same count and under the same terms, the value for `CN(C)Cc1ccc(NCc2ccc(F)cc2)nc1` [TR-YTH-19] was 107 ± 19 pM.

The series is the same for the next values; noted with them: read-out: Ki (pM) YTHDF2.
`COc1ccc(CNc2ccc(CNC3CC3)cn2)cc1` [TR-YTH-01]: the inhibition constant Ki came out at 102 ± 15 pM.
On the same count and under the same terms, to `COc1ccc(CNc2ccc(CNC3CC3)cn2)c(OC)c1` [TR-YTH-02] belongs 182 ± 69 pM; to `COc1ccc(CNc2ccc(CNC3CC3)cn2)cc1OC` [TR-YTH-03], 85 ± 26 pM; to `CC(Nc1ccc(CNC2CC2)cn1)c1ccccc1` (stereo not shown) [TR-YTH-04], 100 ± 34 pM.
The same measure, in the same setting: to `c1cncc(CNc2ccc(CNC3CC3)cn2)c1` [TR-YTH-05] belongs 70 ± 12 pM.
As for `Fc1ccc(CNc2ccc(CNC3CC3)cn2)cc1F` [TR-YTH-06], the Ki is 395 ± 51 pM.
For `FC(F)(F)c1ccc(CNc2ccc(CNC3CC3)cn2)cc1` [TR-YTH-07], the Ki was 77 ± 18 pM.
Same read-out and setting: to `Fc1cccc(F)c1CNc1ccc(CNC2CC2)cn1` [TR-YTH-09] belongs 172 ± 49 pM.
As for `CN(Cc1ccc(C(F)(F)F)cc1)c1ccc(CNC2CC2)cn1` [TR-YTH-10], the inhibition constant Ki was determined as 106 ± 26 pM.
Regarding `Cc1ccc(Nc2ccc(CNC3CC3)cn2)cc1C` [TR-YTH-12], the Ki was found to be 850 ± 115 pM.
For the molecule `Fc1ccnc(Nc2ccc(CNC3CC3)cn2)c1` [TR-YTH-15], the Ki was 145 ± 33 pM.
Regarding `COc1ccc(CNc2ccc(CN(C)C)cn2)cc1` [TR-YTH-16], the inhibitory constant (Ki) was 179 ± 36 pM.
As for `CC(Nc1ccc(CN(C)C)cn1)c1ccccc1` (stereo not shown) [TR-YTH-18], the Ki is 95 ± 13 pM.
With `CN(C)Cc1ccc(NCc2ccc(F)cc2)nc1` [TR-YTH-19], the Ki was found to be 107 ± 19 pM.

The same series, now with this note: read-out: Ki YTHDF2.
With `COc1ccc(CNc2ccc(CNC3CC3)cn2)cc1` [TR-YTH-01], the inhibition constant (Ki) was determined as 102 ± 15 pM.
Turning to `COc1ccc(CNc2ccc(CNC3CC3)cn2)c(OC)c1` [TR-YTH-02], the Ki was determined as 182 ± 69 pM.
The same measure, in the same setting: the value for `COc1ccc(CNc2ccc(CNC3CC3)cn2)cc1OC` [TR-YTH-03] was 85 ± 26 pM; that for `CC(Nc1ccc(CNC2CC2)cn1)c1ccccc1` (stereo not shown) [TR-YTH-04] was 100 ± 34 pM; that for `c1cncc(CNc2ccc(CNC3CC3)cn2)c1` [TR-YTH-05] was 70 ± 12 pM.
With `Fc1ccc(CNc2ccc(CNC3CC3)cn2)cc1F` [TR-YTH-06], the inhibition constant (Ki) was 395 ± 51 pM.
With `FC(F)(F)c1ccc(CNc2ccc(CNC3CC3)cn2)cc1` [TR-YTH-07], the inhibitory constant (Ki) turned out to be 77 ± 18 pM.
Regarding `Fc1cccc(F)c1CNc1ccc(CNC2CC2)cn1` [TR-YTH-09], the inhibitory constant (Ki) was 172 ± 49 pM.
With `CN(Cc1ccc(C(F)(F)F)cc1)c1ccc(CNC2CC2)cn1` [TR-YTH-10], the inhibition constant (Ki) was 106 ± 26 pM.
On to `Cc1ccc(Nc2ccc(CNC3CC3)cn2)cc1C` [TR-YTH-12], for which the inhibition constant Ki was 850 ± 115 pM.
For `Fc1ccnc(Nc2ccc(CNC3CC3)cn2)c1` [TR-YTH-15], the inhibition constant (Ki) amounted to 145 ± 33 pM.
For the molecule `COc1ccc(CNc2ccc(CN(C)C)cn2)cc1` [TR-YTH-16], the inhibition constant Ki was 179 ± 36 pM.
As to `CC(Nc1ccc(CN(C)C)cn1)c1ccccc1` (stereo not shown) [TR-YTH-18], the Ki was found to be 95 ± 13 pM.
For `CN(C)Cc1ccc(NCc2ccc(F)cc2)nc1` [TR-YTH-19], the Ki was 107 ± 19 pM.

In the next series the target is ALKBH5 (Homo sapiens (Human), UniProt Q6P6C2). Put plainly: Fluorescence enzymatic inhibition assay (m6A7-Broccoli RNA / DFHBI-1T) against ALKBH5. Type of series: biochemical. The conditions noted are these: Table 800 compounds; read-out: ALKBH5 IC50. How it is done: (§2) Inhibitors were added in concentrations ranging from 0.008-40 μM; all inhibitors were dissolved in DMSO and added to a final concentration of 0.2% DMSO. […] After incubation at room temperature for 2 hours, the plates were left at 4° C. overnight (16 hours) to allow DFHBI-1T to bind to A7-Broccoli RNA. […] Sigmoidal dose-response curves were fitted in GraphPad Prism 6. All assays were performed in triplicate, with additional repetitions added as necessary.
Chain of ALKBH5 (Q6P6C2 whole entry): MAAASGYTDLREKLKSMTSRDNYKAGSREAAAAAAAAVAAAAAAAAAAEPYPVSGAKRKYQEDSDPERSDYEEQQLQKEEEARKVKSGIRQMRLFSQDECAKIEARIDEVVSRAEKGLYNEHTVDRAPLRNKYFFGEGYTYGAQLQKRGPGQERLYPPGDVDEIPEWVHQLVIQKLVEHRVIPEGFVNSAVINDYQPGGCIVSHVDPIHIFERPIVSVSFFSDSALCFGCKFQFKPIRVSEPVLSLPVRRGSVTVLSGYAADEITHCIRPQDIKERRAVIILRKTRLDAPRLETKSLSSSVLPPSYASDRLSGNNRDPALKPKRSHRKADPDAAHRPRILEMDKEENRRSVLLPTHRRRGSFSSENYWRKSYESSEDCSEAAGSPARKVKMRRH
The IC50 is the concentration that inhibits the measured activity by half. As for `O=S(=O)(Nc1cc(F)ccc1O)c1ccc(OC(F)(F)F)cc1` [TR-ALKBH5-30], the half-maximal inhibitory concentration (IC50) came to 1000 nM.
As for `O=S(=O)(Nc1nccnc1O)c1ccc(OC(F)(F)F)cc1` [TR-ALKBH5-31], the IC50 worked out at 13700 nM.

The target in a further series is FTO (Homo sapiens (Human), UniProt Q9C0B1). Put plainly: Fluorescence enzymatic inhibition assay (m6A7-Broccoli RNA / DFHBI-1T) against FTO. The series is classed as biochemical. The conditions noted are these: Table 800 compounds; read-out: FTO IC50. The method, then: In order to determine their efficacy as FTO inhibitors, the compounds were screened by a fluorescence enzymatic inhibition assay developed previously by the Jaffrey lab.^44 Briefly, a nonfluorescent methylated RNA substrate termed “m6A7-Broccoli” is incubated with FTO in the presence of 2-oxoglutarate (300 μM), (NH4)2Fe(SO4)2·6H2O (300 μM), and L-ascorbate (2 mM) for 2 hours at room temperature in reaction buffer (50 mM NaHEPES, pH 6).
Chain of FTO (Q9C0B1 whole entry): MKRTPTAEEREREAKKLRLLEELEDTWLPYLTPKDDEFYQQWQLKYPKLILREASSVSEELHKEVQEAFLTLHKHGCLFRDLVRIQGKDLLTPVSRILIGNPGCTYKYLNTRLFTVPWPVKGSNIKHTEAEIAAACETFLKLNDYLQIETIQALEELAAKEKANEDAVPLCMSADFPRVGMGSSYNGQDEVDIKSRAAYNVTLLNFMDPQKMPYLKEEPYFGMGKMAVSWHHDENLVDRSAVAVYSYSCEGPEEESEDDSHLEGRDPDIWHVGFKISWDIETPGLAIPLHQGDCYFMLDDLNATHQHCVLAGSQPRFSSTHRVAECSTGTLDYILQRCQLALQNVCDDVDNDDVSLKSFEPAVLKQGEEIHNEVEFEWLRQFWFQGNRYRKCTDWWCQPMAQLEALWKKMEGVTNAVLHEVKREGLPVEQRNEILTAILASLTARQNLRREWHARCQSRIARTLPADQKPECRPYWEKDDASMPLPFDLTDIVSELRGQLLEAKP
as §2
As to `O=S(=O)(Nc1cc(F)ccc1O)c1ccc(OC(F)(F)F)cc1` [TR-ALKBH5-30], the IC50 is over 40000 nM.
Consider `O=S(=O)(Nc1nccnc1O)c1ccc(OC(F)(F)F)cc1` [TR-ALKBH5-31], for which the IC50 was over 40000 nM.

Tested on in a further series: not listed separately
Description: elogD / log D determination. The conditions noted are these: Table 800 compounds.
In turn, `O=S(=O)(Nc1cc(F)ccc1O)c1ccc(OC(F)(F)F)cc1` [TR-ALKBH5-30] had an elogD of 0.81.
In turn, `O=S(=O)(Nc1nccnc1O)c1ccc(OC(F)(F)F)cc1` [TR-ALKBH5-31] had an elogD of 2.33.

The next series has as its target YTHDF1 (Homo sapiens (Human), UniProt Q9BYJ9). Put plainly: In vitro FRET assay for binding affinities of YTH inhibitors, YTHDF1. The following applies: read-out: Ki (pM) YTHDF1.
From the text: as §1
Consider `COc1ccc(CNc2ccc(CNC3CC3)cn2)cc1` [TR-YTH-01], for which the Ki was found to be 164 ± 21 pM.
Consider `COc1ccc(CNc2ccc(CNC3CC3)cn2)c(OC)c1` [TR-YTH-02], for which the Ki worked out at 229 ± 57 pM.
Take `COc1ccc(CNc2ccc(CNC3CC3)cn2)cc1OC` [TR-YTH-03]: the Ki was found to be 123 ± 6 pM.
For `CC(Nc1ccc(CNC2CC2)cn1)c1ccccc1` (stereo not shown) [TR-YTH-04], the Ki was 129 ± 6 pM.
Consider `c1cncc(CNc2ccc(CNC3CC3)cn2)c1` [TR-YTH-05], for which the inhibitory constant (Ki) was 90 ± 10 pM.
For the molecule `Fc1ccc(CNc2ccc(CNC3CC3)cn2)cc1F` [TR-YTH-06], the inhibition constant Ki came to 285 pM.
Take `FC(F)(F)c1ccc(CNc2ccc(CNC3CC3)cn2)cc1` [TR-YTH-07]: the Ki is 162 ± 30 pM.
Regarding `Fc1cccc(F)c1CNc1ccc(CNC2CC2)cn1` [TR-YTH-09], the Ki was 281 ± 9 pM.
For the molecule `CN(Cc1ccc(C(F)(F)F)cc1)c1ccc(CNC2CC2)cn1` [TR-YTH-10], the Ki came out at 615 ± 107 pM.
With `Cc1ccc(Nc2ccc(CNC3CC3)cn2)cc1C` [TR-YTH-12], the Ki is 1420 ± 375 pM.
On to `Fc1ccnc(Nc2ccc(CNC3CC3)cn2)c1` [TR-YTH-15], for which the inhibition constant (Ki) came to 236 ± 51 pM.
As for `COc1ccc(CNc2ccc(CN(C)C)cn2)cc1` [TR-YTH-16], the Ki was 214 ± 50 pM.
Consider `CC(Nc1ccc(CN(C)C)cn1)c1ccccc1` (stereo not shown) [TR-YTH-18], for which the Ki stood at 209 ± 27 pM.
Still for that read-out and setting: the value for `CN(C)Cc1ccc(NCc2ccc(F)cc2)nc1` [TR-YTH-19] was 391 ± 66 pM.

The same series, now with this note: read-out: Ki YTHDF1.
Take `COc1ccc(CNc2ccc(CNC3CC3)cn2)cc1` [TR-YTH-01]: the inhibition constant Ki turned out to be 164 ± 21 pM.
Take `COc1ccc(CNc2ccc(CNC3CC3)cn2)c(OC)c1` [TR-YTH-02]: the Ki came to 229 ± 57 pM.
Regarding `COc1ccc(CNc2ccc(CNC3CC3)cn2)cc1OC` [TR-YTH-03], the inhibition constant Ki was found to be 123 ± 6 pM.
On the same count and under the same terms, the value for `CC(Nc1ccc(CNC2CC2)cn1)c1ccccc1` (stereo not shown) [TR-YTH-04] was 129 ± 6 pM; that for `c1cncc(CNc2ccc(CNC3CC3)cn2)c1` [TR-YTH-05] was 90 ± 10 pM.
With `Fc1ccc(CNc2ccc(CNC3CC3)cn2)cc1F` [TR-YTH-06], the inhibitory constant (Ki) worked out at 285 ± 154 pM.
On the same count and under the same terms, the value for `FC(F)(F)c1ccc(CNc2ccc(CNC3CC3)cn2)cc1` [TR-YTH-07] was 162 ± 30 pM.
With `Fc1cccc(F)c1CNc1ccc(CNC2CC2)cn1` [TR-YTH-09], the Ki worked out at 281 ± 9 pM.
Regarding `CN(Cc1ccc(C(F)(F)F)cc1)c1ccc(CNC2CC2)cn1` [TR-YTH-10], the inhibitory constant (Ki) is 615 ± 107 pM.
For `Cc1ccc(Nc2ccc(CNC3CC3)cn2)cc1C` [TR-YTH-12], the Ki came to 1420 ± 375 pM.
For the molecule `Fc1ccnc(Nc2ccc(CNC3CC3)cn2)c1` [TR-YTH-15], the Ki was 236 ± 51 pM.
Same read-out and setting: the value for `COc1ccc(CNc2ccc(CN(C)C)cn2)cc1` [TR-YTH-16] was 214 ± 50 pM.
Consider `CC(Nc1ccc(CN(C)C)cn1)c1ccccc1` (stereo not shown) [TR-YTH-18], for which the Ki came to 209 ± 27 pM.
In the case of `CN(C)Cc1ccc(NCc2ccc(F)cc2)nc1` [TR-YTH-19], the Ki came to 391 ± 66 pM.
